Twelve molecules from PubChem BioAssay (NCI) can be followed below.

Test systems include DLD-1 colon; DMS 273 small cell lung; HCC-2998 colon; HOP-18 NSCLC; KM20L2 colon; LXFL 529 NSCLC; M19-MEL melanoma; SK-MEL-28 melanoma; SNB-78 CNS; UACC-62 melanoma; DMS 114 small cell lung; RXF-631 renal; XF 498 CNS.
Common to all, as to assay: NCI tumour cell line growth inhibition, 48 h

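Where inhibition never reached the appropriate level, the endpoint shown equals the highest concentration tested. Otherwise, values were interpolated linearly from a five-concentration, 48-hour dose response in 96-well plates. TGI is the concentration that stops growth completely.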

As for `Cc1ccc(Sc2ccccc2[N+](=O)[O-])cc1`, the TGI in the assay with DLD-1 colon is greater than 100 µM; with DMS 273 small cell lung it was 82.5 µM; with HCC-2998 colon, 68.3 µM; with HOP-18 NSCLC it was greater than 100 µM; in the assay on KM20L2 colon, greater than 100 µM; in the assay on LXFL 529 NSCLC it was greater than 100 µM. In addition, the TGI with M19-MEL melanoma is greater than 100 µM; with SK-MEL-28 melanoma, 60 µM; in the assay on SNB-78 CNS it was 95.4 µM; with UACC-62 melanoma, greater than 100 µM.
On to `Cc1cccc2c1c1ccc3c(c1n2C)C(=O)C=CC3=O`, for which the TGI in the assay with DLD-1 colon was 5.21 µM; in the assay with DMS 114 small cell lung, 21.1 µM; in the assay with DMS 273 small cell lung, 8.3 µM; with HCC-2998 colon, 32.8 µM; in the assay with HOP-18 NSCLC, 23.9 µM; in the assay on KM20L2 colon it was 36.9 µM. Also, the TGI in the assay on LXFL 529 NSCLC was 4.22 µM; in the assay on M19-MEL melanoma it was 14.9 µM; in the assay on RXF-631 renal, 49.6 µM; with SK-MEL-28 melanoma it was 24.4 µM; with SNB-78 CNS, 53.5 µM; in the assay on UACC-62 melanoma, 26.5 µM.
In the case of `O=C1Nc2cc([N+](=O)[O-])c(Br)cc2C1=O`, the TGI in the assay with DLD-1 colon came out at 46.5 µM; with DMS 114 small cell lung, 33.5 µM; with DMS 273 small cell lung, 37.3 µM; with KM20L2 colon, 31.7 µM; with M19-MEL melanoma, 31.6 µM; with RXF-631 renal, 33.2 µM. Besides, the TGI in the assay with SK-MEL-28 melanoma is 36.3 µM; in the assay with SNB-78 CNS it was 50.1 µM; with UACC-62 melanoma it was 42.4 µM; with XF 498 CNS, 24.6 µM.
For the molecule `COc1cc(C2C(Cl)C(=O)N2NC(=O)c2ccc(NC(C)=O)cc2)ccc1O` (stereo not drawn), the TGI with DLD-1 colon, with DMS 114 small cell lung, with DMS 273 small cell lung, in the assay on KM20L2 colon, in the assay on LXFL 529 NSCLC and in the assay on M19-MEL melanoma was greater than 100 µM each time. The TGI in the assay with SK-MEL-28 melanoma, in the assay with SNB-78 CNS, in the assay on UACC-62 melanoma and in the assay on XF 498 CNS was greater than 100 µM throughout.
In the case of `CC(C)OP(=O)(OC(C)C)C1=NN(c2ccc([N+](=O)[O-])cc2)C(P(=O)(OC(C)C)OC(C)C)=NN1c1ccc([N+](=O)[O-])cc1`, the TGI with DLD-1 colon, in the assay on DMS 114 small cell lung, in the assay on DMS 273 small cell lung, in the assay with HCC-2998 colon, in the assay with HOP-18 NSCLC and with KM20L2 colon was greater than 100 µM throughout. Further, the TGI in the assay on LXFL 529 NSCLC, in the assay on M19-MEL melanoma, in the assay on SK-MEL-28 melanoma, in the assay on UACC-62 melanoma and with XF 498 CNS was greater than 100 µM each time.
Regarding `CCOC(=O)c1cc2c(OCc3ccccc3)c(OC)cc3c2c(n1)N(c1ccc(OC)cc1)C(C)C3` (stereo not drawn), the TGI in the assay on DLD-1 colon, in the assay on DMS 114 small cell lung, in the assay with DMS 273 small cell lung, in the assay with HCC-2998 colon, in the assay with HOP-18 NSCLC and with KM20L2 colon was greater than 50 µM throughout. Further, the TGI with LXFL 529 NSCLC, in the assay with M19-MEL melanoma, in the assay with SK-MEL-28 melanoma, in the assay on UACC-62 melanoma and in the assay with XF 498 CNS was greater than 50 µM in each case.
In the case of `Cc1cc(NC(=O)C2C3C=CC(O3)C2C(=O)O)no1` (stereo not drawn), the TGI with DLD-1 colon was 49.2 µM; in the assay on DMS 114 small cell lung, 29.9 µM; in the assay on DMS 273 small cell lung it was 34.2 µM; in the assay with HCC-2998 colon, greater than 100 µM; with HOP-18 NSCLC, greater than 100 µM; in the assay on KM20L2 colon it was 26.6 µM. The TGI is 46.6 µM with LXFL 529 NSCLC; 77.7 µM in the assay with M19-MEL melanoma; greater than 100 µM in the assay with RXF-631 renal; greater than 100 µM in the assay on SK-MEL-28 melanoma; greater than 100 µM with SNB-78 CNS; greater than 100 µM in the assay with UACC-62 melanoma. In the assay on XF 498 CNS, this molecule returned a TGI greater than 100 µM.
`CC(=O)NC(CCCCN)C(=O)NCc1ccccc1` (stereo not drawn): the TGI with DLD-1 colon, in the assay on DMS 114 small cell lung, in the assay on DMS 273 small cell lung, in the assay on HCC-2998 colon, with KM20L2 colon and in the assay with LXFL 529 NSCLC was greater than 100 µM each time. The TGI with M19-MEL melanoma, in the assay with SK-MEL-28 melanoma, with UACC-62 melanoma and in the assay on XF 498 CNS was greater than 100 µM in each case.
With `CCOC(=O)C(C)Sc1nnc(COc2ccccc2OC)n1-c1ccccc1` (stereo not drawn), the TGI in the assay on DLD-1 colon is greater than 100 µM; in the assay on DMS 114 small cell lung, 28.1 µM; in the assay with DMS 273 small cell lung, greater than 100 µM; in the assay with HCC-2998 colon, greater than 100 µM; in the assay with HOP-18 NSCLC it was greater than 100 µM; in the assay with KM20L2 colon, greater than 100 µM. For the same molecule, the TGI with LXFL 529 NSCLC, in the assay on M19-MEL melanoma, with SK-MEL-28 melanoma, in the assay on SNB-78 CNS and with UACC-62 melanoma was greater than 100 µM throughout.
With `Cc1cn(C2CC(CCCO)C(CO)O2)c(=O)[nH]c1=O` (stereo not drawn), the TGI with DLD-1 colon, with DMS 114 small cell lung, with DMS 273 small cell lung, with HCC-2998 colon, in the assay on KM20L2 colon and in the assay with LXFL 529 NSCLC was greater than 100 µM each time. Further, the TGI in the assay with M19-MEL melanoma, with SK-MEL-28 melanoma, in the assay on UACC-62 melanoma and in the assay on XF 498 CNS was greater than 100 µM throughout.
`CCOC(=O)CCC1(C(=O)OCC)CCCC1=O` (stereo not drawn): the TGI with DLD-1 colon, in the assay on DMS 114 small cell lung, in the assay on DMS 273 small cell lung, with HCC-2998 colon, with HOP-18 NSCLC and with KM20L2 colon was greater than 100 µM throughout. In addition, the TGI with LXFL 529 NSCLC, with M19-MEL melanoma, with RXF-631 renal, with SK-MEL-28 melanoma, in the assay on SNB-78 CNS and with UACC-62 melanoma was greater than 100 µM each time. In the assay with XF 498 CNS, this molecule yielded a TGI greater than 100 µM.
Take `COc1ccc2nc3c(c(NCCCN(C)C)c2c1)CCCC3`: the TGI with DLD-1 colon came out at 28.4 µM; in the assay with DMS 114 small cell lung, 28.5 µM; in the assay with DMS 273 small cell lung, 24.8 µM; in the assay on HCC-2998 colon, 21.5 µM; in the assay with KM20L2 colon it was 22.4 µM; in the assay on LXFL 529 NSCLC, 28.7 µM. The TGI in the assay on M19-MEL melanoma came to 31 µM; with RXF-631 renal, 28.7 µM; with SK-MEL-28 melanoma, 30.9 µM; in the assay on SNB-78 CNS, 21.4 µM; in the assay with UACC-62 melanoma, 31.2 µM; in the assay on XF 498 CNS, 20.4 µM.
